# Source: ChEMBL document CHEMBL2034982, “Synthesis of new 2-galactosylthiazolidine-4-carboxylic acid amides. Antitumor evaluation against melanoma and breast cancer cells” (Eur J Med Chem, 2012)
# Activity calls are given as the source filed them. No cut-off for these calls is given here.
# Columns and labels:
# [1] = test system: MCF7; test: Cytotoxicity against human MCF7 cells after 48 hrs by MTT assay; type: functional, cell-based; settings: for IC50: MCF7, 48 h
# [2] = test system: A-375; test: Selectivity index, ratio of IC50 for human HFF1 cells to IC50 for human A375 cells; type: functional
# [3] = test system: MCF7; test: Selectivity index, ratio of IC50 for human HFF1 cells to IC50 for human MCF7 cells; type: functional
# [4] = test system: A-375; test: Cytotoxicity against human A375 cells after 48 hrs by MTT assay; type: functional, cell-based; settings: for IC50: A-375, 48 h
# [5] = Cytotoxicity against human HFF1 cells after 48 hrs by MTT assay; type: cell-based; settings: HFF-1, 48 h
# [6] = test system: A-375; test: Cell cycle arrest in human A375 cells assessed as accumulation at S phase at 30 uM after 48 hrs using propidium iodide staining by FACS flow cytometry (reference value: 23.0 +/- 3.3%); type: functional
# [7] = test system: A-375; test: Induction of apoptosis in human A375 cells assessed as increase in ratio of Bax/Bcl2 at 30 uM after 48 hrs by fluorescence assay relative to control; type: functional, cell-based
# [8] = test system: A-375; test: Cytotoxicity against human A375 cells assessed as increase in apoptotic cells at 17 to 30 uM after 48 hrs by annexin V/propidium iodide staining based FACS flow cytometry; type: functional, cell-based
# [9] = test system: A-375; test: Cell cycle arrest in human A375 cells assessed as accumulation at S phase at 17 uM after 48 hrs using propidium iodide staining by FACS flow cytometry (reference value: 23.0 +/- 3.3%); type: functional
# [10] = test system: A-375; test: Cell cycle arrest in human A375 cells assessed as accumulation at sub G1 phase at 30 uM after 48 hrs using propidium iodide staining by FACS flow cytometry; type: functional
# [11] = test system: A-375; test: Cell cycle arrest in human A375 cells assessed as accumulation at G2 phase at 30 uM after 48 hrs using propidium iodide staining by FACS flow cytometry (reference value: 10.6 +/- 1.2%); type: functional
# [12] = test system: A-375; test: Cytotoxicity against human A375 cells assessed as increase in late apoptotic cells at 17 to 30 uM after 48 hrs by annexin V/propidium iodide staining based FACS flow cytometry; type: functional, cell-based
# [13] = test system: A-375; test: Induction of apoptosis in human A375 cells assessed as increase in ratio of Bax/Bcl2 at 17 uM after 48 hrs by fluorescence assay relative to control; type: functional
# [14] = test system: HCC1806; test: Cytotoxicity against human HCC1806 cells after 48 hrs by MTT assay; type: functional, cell-based; settings: HCC1806, 48 h
# [15] = test system: A-375; test: Cell cycle arrest in human A375 cells assessed as accumulation at G2 phase at 17 uM after 48 hrs using propidium iodide staining by FACS flow cytometry (reference value: 10.6 +/- 1.2%); type: functional
# [16] = test system: A-375; test: Cell cycle arrest in human A375 cells assessed as accumulation at G1 phase at 30 uM after 48 hrs using propidium iodide staining by FACS flow cytometry (reference value: 66.4 +/- 4.1%); type: functional
# [17] = test system: A-375; test: Cytotoxicity against human A375 cells assessed as decrease in viable cells at 17 to 30 uM after 48 hrs by annexin V/propidium iodide staining based FACS flow cytometry; type: functional, cell-based
# [18] = test system: A-375; test: Cytotoxicity against human A375 cells after 48 hrs by annexin V/propidium iodide staining based FACS flow cytometry; type: functional, cell-based
# [19] = test system: A-375; test: Cell cycle arrest in human A375 cells assessed as accumulation at G1 phase at 17 uM after 48 hrs using propidium iodide staining by FACS flow cytometry (reference value: 66.4 +/- 4.1%); type: functional
# [20] = test system: A-375; test: Cell cycle arrest in human A375 cells assessed as accumulation at sub G1 phase at 17 uM after 48 hrs using propidium iodide staining by FACS flow cytometry; type: functional
# [21] = test system: A-375; test: Cytotoxicity against human A375 cells assessed as increase in necrotic cells at 17 to 30 uM after 48 hrs by annexin V/propidium iodide staining based FACS flow cytometry; type: functional, cell-based
# [22] = test system: A-375; test: Induction of apoptosis in human A375 cells after 48 hrs using propidium iodide staining by FACS flow cytometry; type: functional, cell-based
Compound,Activity [1],IC50 [1] [µM],Ratio IC50 [2],Ratio IC50 [3],Activity [4],IC50 [4] [µM],IC50 [5] [µM],IC50 [14] [µM],also measured
CCCCCCCCCCCCCCCCCCNC(=O)C1CSC([C@H](O)[C@@H](OC(C)=O)[C@@H](OC(C)=O)[C@@H](COC(C)=O)OC(C)=O)N1C(C)=O (mixture of isomers),Dose-dependent effect,7.7,1.1,3,Dose-dependent effect,20.5,27.2,–,–
CN(C)/N=N/c1[nH]cnc1C(N)=O [DACARBAZINE],–,–,–,–,–,> 500,–,–,–
CCCCCCCCCCCCCCCCNC(=O)C1CSC([C@H](O)[C@@H](OC(C)=O)[C@@H](OC(C)=O)[C@@H](COC(C)=O)OC(C)=O)N1C(C)=O (mixture of isomers),Dose-dependent effect,5.8,1.8,5.8,Dose-dependent effect,17,29.8,12.6,Activity [6]: 46%; Activity [7]: Active; Activity [8]: Active; Activity [9]: 23.6%; Activity [10]: 16.6%; Activity [11]: 10.2%; Activity [12]: Active; Ratio [13]: 2; Activity [15]: 16%; Activity [16]: 43.6%; Activity [17]: Active; Activity [18]: Dose-dependent effect; Activity [19]: 60.6%; Activity [20]: 5.6%; Activity [21]: Active; Activity [22]: Dose-dependent effect
CCCCCCCCCCCCCCNC(=O)C1CSC([C@H](O)[C@@H](OC(C)=O)[C@@H](OC(C)=O)[C@@H](COC(C)=O)OC(C)=O)N1C(C)=O (mixture of isomers),Dose-dependent effect,8.4,1,2.2,Dose-dependent effect,19.6,19.6,–,–
CCCCCCCCCCCCNC(=O)C1CSC([C@H](O)[C@@H](OC(C)=O)[C@@H](OC(C)=O)[C@@H](COC(C)=O)OC(C)=O)N1C(C)=O (mixture of isomers),Dose-dependent effect,7.5,0.22,0.91,Dose-dependent effect,23.1,2.9,–,–
CC(=O)O[C@@]12CO[C@@H]1C[C@H](O)[C@@]1(C)C(=O)[C@H](O)C3=C(C)[C@@H](OC(=O)[C@H](O)[C@@H](NC(=O)OC(C)(C)C)c4ccccc4)C[C@@](O)([C@@H](OC(=O)c4ccccc4)[C@H]21)C3(C)C [DOCETAXEL],–,11.9,–,–,–,–,–,8.4,–
